Measurements as given in patent publication EP3811945A1, “COMPOUNDS FOR TREATING AND PREVENTING GROWTH HORMONE RECEPTOR-DEPENDENT CONDITIONS” (UMC Utrecht Holding B.V., priority 2019, dated 2021).
pEC50: −log10 of the molar value.

How the values were obtained:
[1] = system: GH-GHR-Jak2 signaling; assay: GH-induced signaling in Hek293T cells expressing GHR (pY staining, concentration series)
Experimental: (§2) GH-induced GH-GHR-Jak2 signaling was probed by GHR pY staining in concentration series (0-20 µM, 1 h drug-treated, 10 min GH).

[2] = system: triple negative human breast cancer cells (MDA-MB-231); assay: Proliferation test (DNA in vital cells, dose-response); type: cell-based; conditions: inhibition of proliferation of MDA-MB-231, tested after 24, 48, 72h in cell culture
Experimental: The EC50 refers to the inhibitory effect of the compounds on the proliferation of triple negative human breast cancer cells (MDA-MB-231), tested after 24, 48, 72h in cell culture.
We used the triple-negative human breast cancer line, MDA-MB-231 and quantified DNA in vital cells. Dose-response curves were made after 24, 48 & 72 h. […] The compound with the lowest EC50 (Compound #1) was tested in vivo.

[3] = system: GM-CSF signaling; assay: GH/GM-CSF flow cytometric test in whole human blood with IM-9 lymphoblasts; conditions: selectivity versus another Jak2-dependent cytokine
Experimental: This allowed simultaneous testing of GH- and GM-CSF activity. The GH/GM-CSF cytometric test added two important criteria to GH signaling: The test prioritized compounds that target the GH-driven signaling at the expense of another Jak2-dependent cytokine signaling (GM-CSF); equally important: it selected compounds that exert a rapid effect on the GH/IGF-axis as the response time for STAT5 phosphorylation was limited to 20-30 min.
as §2

[4] = system: GHR; assay: GHR protein levels and phosphorylation in GHR-expressing HEK293T cells transfected with Jak2 (blot, Figure 4A); type: cell-based, rabbit; conditions: overnight treatment, compounds 10 µM; 90 ng GH/ml 10 min before lysis
Description: • Figure 1. […] Unphosphorylated fos-GHRct is rapidly degraded.

[5] = system: MDA-MB-231; assay: Luminescent cell viability assay (ATP); type: cell-based; conditions: Homo sapiens, 46 hours, luciferase signal normalized to untreated cells = 1, read-out: Relative viability MDA-MB-231
Experimental: (§1) Compounds were assessed for effects on viability of the breast cancer cell lines MDA-MB-231 and MDA-MB-453. The cells were incubated with the compounds for 46 hours at a concentration of 5 uM. DMSO was used as vehicle control. Cell viability was assessed after approximately 46 hours by using a luminescent cell viability assay. This assay generates a luminescent signal, proportional to the amount of ATP that is present as a readout of metabolically active cells. Relative viability was calculated by expressing the luciferase signal as a value normalized to untreated cells, meaning that the measured luciferase signal in untreated cells equals 1.

[6] = system: MDA-MB-453; assay: Luminescent cell viability assay (ATP); type: cell-based; conditions: Homo sapiens, 46 hours, luciferase signal normalized to untreated cells = 1, read-out: relative viability MDA-MB-453
Experimental: as §1

Compound: 5-{[1-(4-chlorophenyl)cyclopropyl]ethynyl}-6-methylpyrimidine-2,4-diamine [Compound #2]
- phosphorylation of fos-GHRct (fos-pGHRct), of the active site of Jak2 (p1007/1008) and of STAT5 (pSTAT5) [1]: inhibited
- pEC50 [2]: 7.10
- activity towards GM-CSF signaling [3]: inactive
- amounts of GHR at the plasma membrane (PM) and in the endoplasmic reticulum (ER) / GHR protein levels [4]: decreased

Compound: Cc1nc(N)nc(N)c1CCC(C)c1ccc(F)cc1 (stereo not shown) [compound 3, 5-[3-(4-fluorophenyl)butyl]-6-methylpyrimidine-2,4-diamine]
- pEC50 ([2]; Homo sapiens): 6.70
- viability at 5 µM [5]: 87.7%
- viability at 5 µM [6]: 82.7%

Compound: CC(C)(C=Cc1c(N)nc(N)nc1CCC(F)(F)F)c1ccc(C(F)(F)F)cc1 [compound 4, 5-{3-methyl-3-[4-(trifluoromethyl)phenyl]but-1-en-1-yl}-6-(3,3,3-trifluoropropyl)pyrimidine-2,4-diamine]
- pEC50 ([2]; Homo sapiens): 6.40
- viability at 5 µM [5]: 115%
- viability at 5 µM [6]: 78.9%

Compound: Cc1nc(N)nc(NCc2ccccn2)c1C=CC(C)(C)c1ccc(C(F)(F)F)cc1 [compound 5, 6-methyl-5-[3-methyl-3-[4-(trifluoromethyl)phenyl]but-1-en-1-yl]-N^4-[(pyridin-2-yl)methyl]pyrimidine-2,4-diamine]
- pEC50 ([2]; Homo sapiens): 6.10
- viability at 5 µM [5]: 74.1%
- viability at 5 µM [6]: 20.7%

Compound: Cc1nc(NCc2ccccn2)nc(N)c1C=CC(C)(C)c1ccc(C(F)(F)F)cc1 [compound 6, 6-methyl-5-{3-methyl-3-[4-(trifluoromethyl)phenyl]but-1-en-1-yl}-N^2-[(pyridin-2-yl)methyl]pyrimidine-2,4-diamine]
- pEC50 ([2]; Homo sapiens): 5.70

Compound: Cc1nc(N)nc(N)c1C=CC(C)c1ccc(C(F)(F)F)cc1 (stereo not shown) [compound 7, 2-amino-6-methyl-5-{3-[4-(trifluoromethyl)phenyl]-1-butenyl}-4-pyrimidinylamine]
- viability at 5 µM [5]: 94.2%
- viability at 5 µM [6]: 54%

Compound: Cc1nc(N)nc(N)c1C=CC1(c2ccc(Cl)cc2)CC1 [compound 8, 5-[2-[1-(4-chlorophenyl)cyclopropyl]vinyl]-6-methylpyrimidine-2,4-diamine]
- viability at 5 µM [5]: 91.2%
- viability at 5 µM [6]: 49.5%

Compound: Cc1nc(N)nc(N)c1C=CC(C)(C)c1ccc(C(F)(F)F)cc1 [compound 9, 2-amino-6-methyl-5-{3-methyl-3-[4-(trifluoromethyl)phenyl]-1-butenyl}-4-pyrimidinylamine]
- viability at 5 µM [5]: 91.8%
- viability at 5 µM [6]: 38.9%

Compound: COc1ccc(C(C)(C)C=Cc2c(C)nc(N)nc2N)cc1 [compound 11, 2-amino-5-[3-(4-methoxyphenyl)-3-methyl-1-butenyl]-6-methyl-4-pyrimidinylamine]
- viability at 5 µM [5]: 87.5%
- viability at 5 µM [6]: 48.7%

Compound: Cc1nc(N)nc(N)c1C=CC(C)(C)c1ccc(Cl)cc1 [compound 12, 2-amino-5-[3-(4-chlorophenyl)-3-methyl-1-butenyl]-6-methyl-4-pyrimidinylamine]
- viability at 5 µM [5]: 93.3%
- viability at 5 µM [6]: 56.5%

Compound: Cc1nc(N)nc(N)c1C=CC(C)(C)c1ccc(Cl)c(Cl)c1 [compound 13, 2-amino-5-[3-(3,4-dichlorophenyl)-3-methyl-1-butenyl]-6-methyl-4-pyrimidinylamine]
- viability at 5 µM [5]: 79.6%
- viability at 5 µM [6]: 48.9%

Compound: Cc1nc(N)nc(N)c1C=CC(C)c1cccc(Cl)c1 (stereo not shown) [compound 14, 2-amino-5-[3-(3-chlorophenyl)-1-butenyl]-6-methyl-4-pyrimidinylamine]
- viability at 5 µM [5]: 90.5%
- viability at 5 µM [6]: 61.9%

Compound: COc1cc(OC)cc(C(C)(C)C=Cc2c(C)nc(N)nc2N)c1 [compound 15, 5-[3-(3,5-dimethoxyphenyl)-3-methyl-1-butenyl]-6-methyl-2,4-pyrimidinediamine]
- viability at 5 µM [5]: 91.8%
- viability at 5 µM [6]: 66.7%

Compound: Cc1nc(N)nc(N)c1C=CC(C)c1ccccc1Cl (stereo not shown) [compound 16, 2-amino-5-[3-(2-chlorophenyl)-1-butenyl]-6-methyl-4-pyrimidinylamine]
- viability at 5 µM [5]: 73.7%
- viability at 5 µM [6]: 61.7%

Compound: Cc1nc(N)nc(N)c1C=CC1(c2ccc(Cl)cc2)CCCC1 [compound 17, 2-amino-5-{2-[1-(4-chlorophenyl)cyclopentyl]vinyl}-6-methyl-4-pyrimidinylamine]
- viability at 5 µM [5]: 74.9%
- viability at 5 µM [6]: 64%

Compound: Cc1nc(N)nc(N)c1C=CC(C)(C)c1cc(Cl)cc(Cl)c1 [compound 18, 2-amino-5-[3-(3,5-dichlorophenyl)-3-methyl-1-butenyl]-6-methyl-4-pyrimidinylamine]
- viability at 5 µM [5]: 89.7%
- viability at 5 µM [6]: 78.9%

Compound: CC(C)c1nc(N)nc(N)c1C=CC(C)(C)c1ccc(C(F)(F)F)cc1 [compound 19, 6-isopropyl-5-{3-methyl-3-[4-(trifluoromethyl)phenyl]-1-butenyl}-2,4-pyrimidinediamine]
- viability at 5 µM [5]: 89.8%
- viability at 5 µM [6]: 80.6%

Compound: Cc1nc(N)nc(N)c1C=CC(C)(C)c1ccc(S(C)(=O)=O)cc1 [compound 20, 2-amino-6-methyl-5-{3-methyl-3-[4-(methylsulfonyl)phenyl]-1-butenyl}-4-pyrimidinylamine]
- viability at 5 µM [5]: 64.2%
- viability at 5 µM [6]: 63.7%

Compound: Cc1nc(N)nc(N)c1C=CC1(c2ccccc2C(F)(F)F)CC1 [compound 21, 6-methyl-5-[2-[1-[2-(trifluoromethyl)phenyl]cyclopropyl]vinyl]pyrimidine-2,4-diamine]
- viability at 5 µM [5]: 87.9%
- viability at 5 µM [6]: 52.9%

Compound: COc1ccc(C2(C=Cc3c(C)nc(N)nc3N)CC2)cc1 [compound 22, 5-[2-[1-(4-methoxyphenyl)cyclopropyl]vinyl]-6-methylpyrimidine-2,4-diamine]
- viability at 5 µM [5]: 85.3%
- viability at 5 µM [6]: 42.1%

Compound: Cc1nc(N)nc(N)c1C#CC1(c2ccc(C(F)(F)F)cc2)CC1 [compound 23, 6-methyl-5-[2-[1-[4-(trifluoromethyl)phenyl]cyclopropyl]ethynyl]pyrimidine-2,4-diamine]
- viability at 5 µM [5]: 107%
- viability at 5 µM [6]: 71.7%

Compound: Cc1nc(N)nc(N)c1C=CC1(c2ccc(OC(F)(F)F)cc2)CC1 [compound 24, 6-methyl-5-[2-[1-[4-(trifluoromethoxy)phenyl]cyclopropyl]vinyl]pyrimidine-2,4-diamine]
- viability at 5 µM [5]: 87.8%
- viability at 5 µM [6]: 39.2%

Compound: Cc1nc(N)nc(N)c1C=CC1(c2ccc(N3CCOCC3)cc2)CC1 [compound 25, 6-methyl-5-[2-[1-(4-morpholinophenyl)cyclopropyl]vinyl]pyrimidine-2,4-diamine]
- viability at 5 µM [5]: 91.6%
- viability at 5 µM [6]: 40.5%

Compound: Cc1nc(N)nc(N)c1C=CC1(c2cccc(C(F)(F)F)c2)CC1 [compound 26, 6-methyl-5-[2-[1-[3-(trifluoromethyl)phenyl]cyclopropyl]vinyl]pyrimidine-2,4-diamine]
- viability at 5 µM [5]: 103%
- viability at 5 µM [6]: 63.2%

Compound: Cc1nc(N)nc(N)c1C#CC1(c2cccc(C(F)(F)F)c2)CC1 [compound 27, 6-methyl-5-[2-[1-[3-(trifluoromethyl)phenyl]cyclopropyl]ethynyl]pyrimidine-2,4-diamine]
- viability at 5 µM [5]: 105%
- viability at 5 µM [6]: 73%

Compound: Cc1nc(N)nc(N)c1C#CC1(c2ccc(N3CCOCC3)cc2)CC1 [compound 28, 6-methyl-5-[2-[1-(4-morpholinophenyl)cyclopropyl]ethynyl]pyrimidine-2,4-diamine]
- viability at 5 µM [5]: 107%
- viability at 5 µM [6]: 70.1%

Compound: Cc1nc(N)nc(N)c1C#CC1(c2ccc(OC(F)(F)F)cc2)CC1 [compound 29, 6-methyl-5-[2-[1-[4-(trifluoromethoxy)phenyl]cyclopropyl]ethynyl]pyrimidine-2,4-diamine]
- viability at 5 µM [5]: 95.5%
- viability at 5 µM [6]: 62.6%
